The test system of one data set is platelet aggregation. Briefly: Experiment C: clinical case studies, platelet anti-aggregation activity, oral administration. It is filed as in vivo. The method, then:
(§1) The following clinical experimentation was carried out to clinically test various compounds in accordance with the present invention for their anti-inflammatory, analgesic and platelet aggregation or clumping inhibition activites.
The following case studies relate to the platelet anti-aggregation activity associated with the oral administration of 2'-(N,N-diethylaminoethyl) 5-(2'-thenoyl)-indan-2-carboxylate.

Data set [1] concerns erythema produced by ultra violet radiation. Briefly: Protective effect against erythema from ultra violet radiation (Winder et al.). The settings on record: Cavia porcellus; albino guinea pig, oral; amount reducing erythema by 50%; read-out: AD50, U.V. It counts as in vivo, albino guinea pigs. The method, then: D--The protective effect against inflammation resulting from exposure to radiation was determined in albino guinea pigs using the method of Winder et al (Arch. Inv. Pharmacodyn. 1958, Vol. 116, page 261). The AD50 value was determined for the test substance, namely the amount which, when administered to the animal orally, reduced by 50% the erythema produced by exposing the shaved dorsal skin of the guinea pig to ultra violet radiation.

In data set [2] the test system is carrageenin-induced edema. Briefly: Anti-inflammatory activity, carrageenin-induced edema test (Winter et al.). The following applies: rat, oral; dose inhibiting edema by 30%; read-out: AD30, Carrageenin. It is filed as in vivo. From the text:
The protection afforded, by oral administration of the compound to a rat against edema induced by injecting a suspension of carrageenin under the arch of the foot of the animal was investigated. The AD30 dose is that which inhibits the edema by 30%.
In general terms: Carrageenan injected into the paw causes an acute inflammation.

Data set [3] in a line: Experiment A: clinical case studies, anti-inflammatory activity, oral administration. It is filed as in vivo. The protocol:
The following clinical experimentation was carried out to clinically test various compounds in accordance with the present invention for their anti-inflammatory, analgesic and platelet aggregation or clumping inhibition activites. […] Diagonsis: Seropositive, classic, rheumatoid polyarthritis, radioclinical stage IV Treatment: 600 mg/day for 3 weeks Diagnosis: Ankylosing spondylarthrittis with signs of peripheral joint inflammation Treatment: 600 mg/day for 3 weeks Diagnosis: Psoriatic peripheral rheumatism Treatment: 600 mg/day for 15 days

Data set [4] has as its system spasms of pain caused by the intraperitoneal injection of a solution of acetic acid. Briefly: Analgesic activity, acetic acid induced spasms of pain (Koster et al.). The settings on record: mouse, oral; dose reducing spasms of pain by 50%; read-out: AD50, Acetic Acid. It is filed as in vivo. The protocol:
B--Analgesic activity in the mouse was determined by the method of Koster et al. (Fed. Proc. 1959, Vol. 18, page 412). The active dose 50 (AD50) value for various compounds in accordance with the present invention was determined, namely, that dose which, when administered orally, reduces by 50% the spasms of pain caused by the intraperitoneal injection of a solution of acetic acid.

Data set [5] in a line: Acute toxicity, LD 50 (oral route), mice. The following applies: mouse, in vivo. From the text:
A--The substances are of low toxicity. For example, the LD 50 value (oral route), determined in mice, of various compounds in accordance with the present invention are shown in column A of Table I.

The test system of another data set is platelets. Briefly: In vitro inhibition of platelet aggregation induced by collagen (Born). It is filed as cell-based. The following applies: read-out: minimal active concentration, Platelet Aggregation Induced By Collagen. The method, then: E--The anti-inflammatory activity was also determined by the aggregation-inhibiting effect of the compounds in accordance with the present invention, in vitro, on platelets the aggregation of which was induced by collagen, in accordance with the method of Born (Journal of Physiology, 1962, Vol. 162, page 67). It is known that compounds which inhibit the activity or quantity of prostaglandin synthetase will inhibit the formation of prostaglandin PGE2 and the inflammatory and pyretic effect thereof. Since prostaglandin PGE2 also causes an increase in platelet aggregation, this test is an effective indication of anti-inflammatory and anti-pyretic activity due to inhibition of prostaglandin synthetase.

Data set [6] can be described thus: Experiment B: clinical case studies, analgesic activity, oral administration. It is filed as in vivo. The settings on record: for Tolerance, Biological / Tolerance, Clinical: NAD = Nothing Abnormal Discovered. The method, then: as §1
The following case studies relate to the analgesic activity associated with the oral administration of methyl 5-(4'-dimethylaminobenzoyl)-indan-2-carboxylate.
Diagnosis: Painful episode against a background of arthrosis of the cervical spine
Treatment: 600 mg/day for 3 weeks
Diagnosis: Pains in the right hip when pressure applied, secondary to aseptic osteonecrosis
Treatment: 600 mg/day for 15 days
Diagnosis: Arthrosis of the right hip resembling Paget's Disease

The mark [7] stands for this setting: Case 1, oral 200 mg, before treatment 100%.
Where [8] appears, read: Case 2, oral 200 mg, before treatment 100%.
Setting [9] is: Case 3, oral 200 mg, before treatment 100%.
Where [10] appears, read: Case 1, oral 600 mg/day for 3 weeks.
Setting [11] is: Case 1, rheumatoid polyarthritis, oral 600 mg/day for 3 weeks.
[12] abbreviates: Case 2, ankylosing spondylarthritis, oral 600 mg/day for 3 weeks.
Setting [13] is: Case 3, oral 600 mg/day for 15 days.
Where [14] appears, read: Case 3, psoriatic peripheral rheumatism, oral 600 mg/day for 15 days.
Setting [15] is: Case 1, arthrosis of the cervical spine, oral 600 mg/day for 3 weeks.
Where [16] appears, read: Case 2, hip pain secondary to aseptic osteonecrosis, oral 600 mg/day for 15 days.
Setting [17] is: Case 2, oral 600 mg/day for 15 days.
Setting [18] is: Case 3, arthrosis of the right hip, oral 600 mg/day for 15 days.

The values that follow come from patent US4269848A, “5-Substituted indan-2-carboxylic acid and functional derivatives” (Lipha, Lyonnaise Industrielle Pharmaceutique, priority 1976, dated 1981).

In general, LD50 refers to the dose expected to kill half of the subjects tested. A low value points to a more toxic substance.

Consider `CCN(CC)CCOC(=O)C1Cc2ccc(C(=O)c3cccs3)cc2C1` (stereo not shown) [2'-(N,N-diethylaminoethyl) 5-(2'-thenoyl)-indan-2-carboxylate], for which the “second phase of aggregation with ADP” value in the data set on platelet aggregation (Case 1, oral 200 mg) is on record as “Inhibition”; in the data set with platelet aggregation (Case 2, oral 200 mg), 0%; with platelet aggregation (Case 3, oral 200 mg), “Inhibition”. Moreover, the results for the “Aggregation with collagen, 1 h after taking 200 mg” value in the data set on platelet aggregation (setting [7]), in the data set with platelet aggregation (setting [8]) and in the data set on platelet aggregation (setting [9]) were 0%, 10% and 0%, respectively. Besides, the “Aggregation with collagen, 3 h after taking 200 mg” value in the data set with platelet aggregation (setting [7]) was 0%; with platelet aggregation (setting [8]), 10%; in the data set with platelet aggregation (setting [9]) it was 0%. The “Aggregation with collagen 24 hours after the last dose” value in the data set on platelet aggregation (Case 1, oral, 24 h after last dose, before treatment 100%) is 10%. In addition, the “Aggregation with collagen 24 hours after last dose” value in the data set on platelet aggregation (Case 2, oral, 24 h after last dose, before treatment 100%) is 15%; with platelet aggregation (Case 3, oral, 24 h after last dose, before treatment 100%), 0%.
As for `Cc1ccc(C(=O)c2ccc3c(c2)CC(C(=O)O)C3)s1` (stereo not shown) [5-(5'-Methyl-2'-thenoyl)-indan-2-carboxylic acid], in data set [1], the ED50 amounted to 14 mg/kg. The ED30 in data set [2] worked out at 7.5 mg/kg. For the same compound, in data set [3] (setting [10]), the Tolerance result is “Very good clinical and biological tolerance”. For the same compound, in data set [3] (setting [11]), the Conclusion entry is reported as “Good result”, the “erythrocyte sedimentation rate (ESR)” value is given as “decrease”, the mobility result was “Improved mobility” and the morning stiffness entry is “Decrease”. Also, in data set [3] (setting [11]), the peripheral pain result was “Decrease”. Moreover, in data set [3] (setting [12]), the Conclusion result was “Good result”, the analgesic effect entry is given as “Good analgesic effect”, the articular perimeters entry was “decrease in articular perimeters” and the “effectiveness compared with phenylbutazone” value is “As effective as phenylbutazone”. In addition, the mobility entry in data set [3] (setting [12]) was “Good mobility”. Moreover, in data set [3] (Case 2, oral 600 mg/day for 3 weeks), the Tolerance entry was “Good clinical and biological tolerance”. In data set [3] (setting [13]), the Tolerance result is “Good clinical and biological tolerance”. In data set [3] (setting [14]), the Conclusion result is reported as “Very good result”, the articular perimeter entry is given as “decrease in articular perimeter”, the local heat result is reported as “decrease in local heat” and the morning pain entry is given as “Decrease in morning pain”. Further, in data set [4], the ED50 worked out at 12 mg/kg. In data set [5], the LD50 amounted to 3000 mg/kg. In addition, in the data set on platelets, the minimal effective concentration amounted to 1 µg/mL.
With `CS(=O)(=O)c1ccc(C(=O)c2ccc3c(c2)CC(C(=O)O)C3)cc1` (stereo not shown) [5-(p-methylsulfonylbenzoyl)-indan-2-carboxylic acid], the ED50 in data set [1] is 10 mg/kg; in data set [4] it was 35 mg/kg. In data set [2], the ED30 was 40 mg/kg. Moreover, the LD50 in data set [5] came to 2800 mg/kg. In addition, the minimal effective concentration in the data set on platelets stood at 1 µg/mL.
On the same counts, the results for `NS(=O)(=O)c1ccc(C(=O)c2ccc3c(c2)CC(C(=O)O)C3)cc1` (stereo not shown) [5-(p-sulfamidobenzoyl)-indan-2-carboxylic acid] are 90 mg/kg, 25 mg/kg, 43 mg/kg, above 3200 mg/kg and 5 µg/mL.
In the same order, the values of `O=C(c1ccccc1)c1ccc2c(c1)CC(C(=O)O)C2` (stereo not shown) [5-benzoyl-indan-2-carboxylic acid] are 40 mg/kg, 40 mg/kg, 18 mg/kg, 2100 mg/kg and 2.5 µg/mL.
For the compound `CCOC(=O)C1Cc2ccc(C(=O)c3ccc(NC(C)=O)c(Cl)c3)cc2C1` (stereo not shown) [Ethyl 5-(4'-acetamido-3'-chlorobenzoyl)-indan-2-carboxylate], the ED50 amounted to 80 mg/kg in data set [1] and 35 mg/kg in data set [4]. Further, the ED30 in data set [2] turned out to be 60 mg/kg. For the same compound, in data set [5], the median lethal dose (LD50) worked out at 3200 mg/kg. In addition, the minimal effective concentration in the data set on platelets was 5 µg/mL.
With `COC(=O)C1Cc2ccc(C(=O)c3ccc(N(C)C)cc3)cc2C1` (stereo not shown) [Methyl 5-(4'-dimethylaminobenzoyl)-indan-2-carboxylate], the ED50 in data set [1] worked out at 24 mg/kg; in data set [4] it was 2.5 mg/kg. In data set [2], the ED30 came out at 12 mg/kg. Besides, the Conclusion result in data set [6] (setting [15]) was “Good result”; in data set [6] (setting [16]), “Very good result”; in data set [6] (setting [18]) it was “Good result”. In addition, the Length of relief was 4 h in data set [6] (setting [15]), 4 h in data set [6] (setting [16]) and 2 h in data set [6] (setting [18]). In addition, the “Time taken to relieve pain” value in data set [6] (setting [15]) turned out to be 30 min. The “Tolerance, Biological” value in data set [6] (setting [10]), in data set [6] (setting [17]) and in data set [6] (setting [13]) was “NAD” in each case. Also, the “Tolerance, Clinical” value in data set [6] (setting [10]) is “NAD (Nothing Abnormal Discovered)”; in data set [6] (setting [17]) it was “NAD”; in data set [6] (setting [13]), “NAD”. Moreover, the “Time to relieve pain” value in data set [6] (setting [16]) was “less than 15 minutes”; in data set [6] (setting [18]), 30 min. This compound had an LD50 in data set [5] of 1450 mg/kg. Further, the minimal effective concentration in the data set with platelets amounted to 0.25 µg/mL.
`CCN(CC)CCNC(=O)C1Cc2ccc(C(=O)c3cc(Cl)ccc3Cl)cc2C1` (stereo not shown) [N-[2'-(N',N'-diethylaminoethyl)]5-(2',5'-dichlorobenzoyl)-indan-2-carboxamide]: the ED50 in data set [1] was determined as 50 mg/kg; in data set [4], 15 mg/kg. Further, the ED30 in data set [2] came out at 25 mg/kg. In data set [5], this compound showed an LD50 of 720 mg/kg. The minimal effective concentration with platelets came out at 2.5 µg/mL.
On the same counts, the results for `CCN(CC)CCNC(=O)C1Cc2ccc(C(=O)c3cccs3)cc2C1` (stereo not shown) [N-[2'-(N',N'-diethylaminoethyl)]5-(2'-thenoyl)-indan-2-carboxamide] are 10 mg/kg, 2.5 mg/kg, 8 mg/kg, 660 mg/kg and 0.25 µg/mL.
On the same counts, the results for `CCN(CC)CCNC(=O)C1Cc2ccc(C(=O)c3ccccc3)cc2C1` (stereo not shown) [N-[2'-(N',N'-diethylaminoethyl)] 5-benzoyl-indan-2-carboxamide] are 25 mg/kg, 30 mg/kg, 9 mg/kg, 1100 mg/kg and 2.5 µg/mL.
For the compound `COC(=O)C1Cc2ccc(C(=O)c3ccco3)cc2C1` (stereo not shown) [methyl 5-(2'-furoyl)-indan-2-carboxylate, Methyl 5-(2'-furoyl)-indan-2-carboxylate], the ED50 came out at 19 mg/kg in data set [1] and 9 mg/kg in data set [4]. Further, the ED30 in data set [2] is 13 mg/kg. Also, the LD50 in data set [5] is 3200 mg/kg. Also, the minimal effective concentration in the data set with platelets worked out at 1 µg/mL.
